Results as given in publication PMC10620772, “Design, synthesis, and biological evaluation of new pyrimidine-5-carbonitrile derivatives as novel anti-cancer, dual EGFR^WT/COX-2 inhibitors with docking studies” (RSC Advances, 2023).

What was measured:
Assay in all cases: NCI60 antitumor screening
Format in all cases: cell-based, human
K-562 = settings: Homo sapiens; 10 μM single dose; (leukaemia); read-out: growth inhibition percent (GI%)
MOLT-4 = settings: Homo sapiens; 10 μM single dose; MOLT-4 (leukaemia); read-out: growth inhibition percent (GI%)
SR = settings: Homo sapiens; 10 μM single dose; SR (leukaemia); read-out: growth inhibition percent (GI%)
A549/ATCC = settings: Homo sapiens; 10 μM single dose; A549/ATCC (non-small cell lung cancer); read-out: growth inhibition percent (GI%)
HOP-92 = settings: Homo sapiens; 10 μM single dose; HOP-92 (non-small cell lung cancer); read-out: growth inhibition percent (GI%)
NCI-H226 = settings: Homo sapiens; 10 μM single dose; NCI-H226 (non-small cell lung cancer); read-out: growth inhibition percent (GI%)
NCI-H322M = settings: Homo sapiens; 10 μM single dose; NCI-H322M (non-small cell lung cancer); read-out: growth inhibition percent (GI%)
HCT-15 = settings: Homo sapiens; 10 μM single dose; HCT-15 (colon cancer); read-out: growth inhibition percent (GI%)
KM12 = settings: Homo sapiens; 10 μM single dose; KM12 (colon cancer); read-out: growth inhibition percent (GI%)
SW-620 = settings: Homo sapiens; 10 μM single dose; SW-620 (colon cancer); read-out: growth inhibition percent (GI%)
SF-268 = settings: Homo sapiens; 10 μM single dose; SF-268 (CNS cancer); read-out: growth inhibition percent (GI%)
SF-295 = settings: Homo sapiens; 10 μM single dose; SF-295 (CNS cancer); read-out: growth inhibition percent (GI%)
SF-539 = settings: Homo sapiens; 10 μM single dose; SF-539 (CNS cancer); read-out: growth inhibition percent (GI%)
MALME-3M = settings: Homo sapiens; 10 μM single dose; MALME-3M (melanoma); read-out: growth inhibition percent (GI%)
MDA-MB-435 = settings: Homo sapiens; 10 μM single dose; MDA-MB-435 (melanoma); read-out: growth inhibition percent (GI%)
SK-MEL-2 = settings: Homo sapiens; 10 μM single dose; SK-MEL-2 (melanoma); read-out: growth inhibition percent (GI%)
SK-MEL-5 = settings: Homo sapiens; 10 μM single dose; SK-MEL-5 (melanoma); read-out: growth inhibition percent (GI%)
UACC-257 = settings: Homo sapiens; 10 μM single dose; UACC-257 (melanoma); read-out: growth inhibition percent (GI%)
UACC-62 = settings: Homo sapiens; 10 μM single dose; UACC-62 (melanoma); read-out: growth inhibition percent (GI%)
OVCAR-4 = settings: Homo sapiens; 10 μM single dose; OVCAR-4 (ovarian cancer); read-out: growth inhibition percent (GI%)
OVCAR-5 = settings: Homo sapiens; 10 μM single dose; OVCAR-5 (ovarian cancer); read-out: growth inhibition percent (GI%)
OVCAR-8 = settings: Homo sapiens; 10 μM single dose; OVCAR-8 (ovarian cancer); read-out: growth inhibition percent (GI%)
SK-OV-3 = settings: Homo sapiens; 10 μM single dose; SK-OV-3 (ovarian cancer); read-out: growth inhibition percent (GI%)
CAKI-1 = settings: Homo sapiens; 10 μM single dose; CAKI-1 (renal cancer); read-out: growth inhibition percent (GI%)
MCF7 = settings: Homo sapiens; 10 μM single dose; MCF7 (breast cancer); read-out: growth inhibition percent (GI%)
MDA-MB-231/ATCC = settings: Homo sapiens; 10 μM single dose; MDA-MB-231/ATCC (breast cancer); read-out: growth inhibition percent (GI%)
HS 578T = settings: Homo sapiens; 10 μM single dose; HS 578T (breast cancer); read-out: growth inhibition percent (GI%)
MDA-MB-468 = settings: Homo sapiens; 10 μM single dose; MDA-MB-468 (breast cancer); read-out: growth inhibition percent (GI%)

| SMILES | inhibition at 10 µM (K-562) [%] | inhibition at 10 µM (MOLT-4) [%] | inhibition at 10 µM (SR) [%] | inhibition at 10 µM (A549/ATCC) [%] | inhibition at 10 µM (HOP-92) [%] | inhibition at 10 µM (NCI-H226) [%] | inhibition at 10 µM (NCI-H322M) [%] | inhibition at 10 µM (HCT-15) [%] | inhibition at 10 µM (KM12) [%] | inhibition at 10 µM (SW-620) [%] | inhibition at 10 µM (SF-268) [%] | inhibition at 10 µM (SF-295) [%] | inhibition at 10 µM (SF-539) [%] | inhibition at 10 µM (MALME-3M) [%] | inhibition at 10 µM (MDA-MB-435) [%] | inhibition at 10 µM (SK-MEL-2) [%] | inhibition at 10 µM (SK-MEL-5) [%] | inhibition at 10 µM (UACC-257) [%] | inhibition at 10 µM (UACC-62) [%] | inhibition at 10 µM (OVCAR-4) [%] | further results |
| --- | --- | --- | --- | --- | --- | --- | --- | --- | --- | --- | --- | --- | --- | --- | --- | --- | --- | --- | --- | --- | --- |
| Cc1ccc(CSc2nc(-c3ccc(F)cc3)c(C#N)c(N3CCNCC3)n2)cc1 [4h, 4-(4-Fluorophenyl)-2-((4-methylbenzyl)thio)-6-(piperazin-1-yl)pyrimidine-5-carbonitrile] | < 10 | < 10 | < 10 | < 10 | < 10 | < 10 | < 10 | < 10 | < 10 | < 10 | < 10 | < 10 | < 10 | < 10 | < 10 | < 10 | < 10 | < 10 | < 10 | < 10 | inhibition at 10 µM (OVCAR-5): < 10%; inhibition at 10 µM (OVCAR-8): < 10%; inhibition at 10 µM (SK-OV-3): < 10%; inhibition at 10 µM (CAKI-1): 11.7%; inhibition at 10 µM (MCF7): < 10%; inhibition at 10 µM (MDA-MB-231/ATCC): < 10%; inhibition at 10 µM (HS 578T): 10.1%; inhibition at 10 µM (MDA-MB-468): < 10% |
| Cc1ccc(CSc2nc(-c3ccc(F)cc3)c(C#N)c(N3CCN(C)CC3)n2)cc1 [4l, 4-(4-Fluorophenyl)-2-((4-methylbenzyl)thio)-6-(4-methylpiperazin-1-yl) pyrimidine-5-carbonitrile] | 28.6 | 10.5 | < 10 | 13.1 | 39.3 | < 10 | 18 | 10.3 | < 10 | < 10 | < 10 | 17.6 | 31.8 | 11.7 | < 10 | < 10 | < 10 | < 10 | 13 | < 10 | inhibition at 10 µM (OVCAR-5): < 10%; inhibition at 10 µM (OVCAR-8): 11.9%; inhibition at 10 µM (SK-OV-3): < 10%; inhibition at 10 µM (CAKI-1): 36.9%; inhibition at 10 µM (MCF7): 12.8%; inhibition at 10 µM (MDA-MB-231/ATCC): 28.9%; inhibition at 10 µM (HS 578T): 31.1%; inhibition at 10 µM (MDA-MB-468): < 10% |
